Assay results from paper PMC7320011, “Rationally designed ruthenium complexes for 1- and 2-photon photodynamic therapy” (Nature Communications, 2020).
“And” between values parts separate entries of the source, which are not always exact repeats. Equal entries are not always repeated. Where two headings read alike, the source gives them in different places.

Key:
[1] = Photostability (absorption spectra upon irradiation); assay type: physicochemical; conditions: 450 nm, 0 to 10 min (13.2 J cm^−2), air-saturated acetonitrile
[2] = tested on: noncancerous retinal pigment epithelium (RPE-1) cells
Method: (§1) A total of 4 × 10^3 cells were seeded on 96-well plates and allowed to adhere overnight. The cells were treated with increasing concentrations of the sample diluted in cell media achieving a total volume of 200 μL. The cells were incubated with the sample for 8 h and, after this time, the medium refreshed. To study the phototoxic effect of the sample, the cells were exposed to 480 nm (spectral half-width: 20 nm, 10 min, 5.2 mW cm^−2, 3.1 J cm^−2) or 540 nm (spectral half-width: 30 nm, 40 min, 4.0 mW cm^−2, 9.5 J cm^−2) light using an Atlas Photonics LUMOS BIO irradiator. To study the dark cytotoxicity of the sample, the cells were not irradiated and the medium exchanged. The cells were grown for an additional 40 h at 37 °C. After this time, the medium was replaced with fresh medium containing resazurin with a final concentration of 0.2 mg mL^−1. The cells were incubated for 4 h and the amount of the fluorescent product resorufin determined (λex = 540 nm, λem = 590 nm) with a SpectraMax M2 Microplate Reader (Molecular Devices). The obtained data was analyzed with the GraphPad Prism software.

[3] = tested on: mouse colon carcinoma (CT-26) cells
[4] = tested on: human glioblastoma astrocytoma (U373) cells;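 also: Resazurin-to-resorufin fluorescence viability readout, 8 h compound exposure then medium change, light dose 3.1 J cm^−2 at 480 nm or 9.5 J cm^−2 at 540 nm, analysed 40 h later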
Method: as §1

[5] = Distribution coefficient (shake-flask, octanol/PBS); assay type: physicochemical; conditions: ICP-MS
Method: Using the “shake-flask” method, the distribution coefficient between the PBS and octanol phase of the sample was determined. The PBS and octanol phases were previously saturated in each other. The sample was dissolved in the phase, which is dissolving best the compound. This solution was added to an equal volume of the other phase and mixed at 190 rpm overnight with a sample mixer. Following this, the solutions were equilibrated for 4 h. The phases were carefully separated from each other. The amount of the sample in each phase was determined by ICP-MS. The evaluation was repeated three times and the ratio between the organic and aqueous phase determined.

[6] = tested on: human glioblastoma astrocytoma (U373) cells; assay: (Photo-)cytotoxicity on 2D cell monolayers, U373; conditions: for IC50: 1-3 as chloride salts;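 as to all read-outs here: Resazurin-to-resorufin fluorescence viability readout, 8 h compound exposure then medium change, light dose 3.1 J cm^−2 at 480 nm or 9.5 J cm^−2 at 540 nm, analysed 40 h later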
Method: as §1

[7] = tested on: noncancerous retinal pigment epithelium (RPE-1) cells; assay: (Photo-)cytotoxicity on 2D cell monolayers, RPE-1; conditions: for IC50: 1-3 as chloride salts
Method: as §1

[8] = Singlet oxygen quantum yield, direct evaluation (1O2 phosphorescence); assay type: physicochemical
Method: Direct evaluation: the sample was prepared in an air-saturated acetonitrile or deuterated water solution with an absorption of 0.2 at 450 nm. The sample was irradiated at 450 nm with a mounted M450LP1 LED (Thorlabs), whose light was focused with aspheric condenser lenses. Using a T-Cube LED Driver (Thorlabs), the intensity of the irradiation was varied and monitored with an optical power and energy meter. The emission was focused at right angle to the excitation pathway and directed to a Princeton Instruments Acton SP-2300i monochromator. To cut off light at wavelengths shorter than 850 nm, a longpass glass filter was placed in front of the monochromator entrance slit. The signal was detected with an EO-817L IR-sensitive liquid-nitrogen cooled germanium diode detector (North Coast Scientific Corp.). The luminescence signal, centered at 1270 nm, was measured from 1100 to 1400 nm. The obtained data were analyzed upon plotting the integrated luminescence peaks against the percentage of the irradiation intensity. The slope of the linear regression was calculated and compared with the reference Rose Bengal (Φ = 76%)[59]. The absorption of the sample was corrected with an absorption correction factor. The singlet oxygen quantum yields were calculated using the following formula:4 Φsample=Φreference×Ssample/Sreference×Ireference/Isample, 5 I=I0×1−10^-A.
Φ = singlet oxygen quantum yield, S = slope of the linear regression of the plot of the areas of the singlet oxygen luminescence peaks against the irradiation intensity, I = absorption correction factor, I0 = light intensity of the irradiation source, and A = absorption of the sample at irradiation wavelength.

[9] = tested on: mouse colon carcinoma (CT-26) cells; assay: (Photo-)cytotoxicity on 2D cell monolayers, CT-26; conditions: for IC50: 1-3 as chloride salts
[10] = Emission and luminescence quantum yield; assay type: physicochemical; conditions: acetonitrile
Method: The absorption spectra of the sample was measured with a SpectraMax M2 Spectrometer (Molecular Devices). For the measurements of the emission, the sample was irradiated at 355 nm with a NT342B Nd-YAG pumped optical parametric oscillator (Ekspla). The emission was focused at right angle to the excitation pathway and directed to a Princeton Instruments Acton SP-2300i monochromator. The signal was detected with a XPI-Max 4 CCD camera (Princeton Instruments).
The sample was prepared in an acetonitrile solution with an absorption of 0.1 at 355 nm. The sample was irradiated at 355 nm with a NT342B Nd-YAG pumped optical parametric oscillator (Ekspla). The emission was focused at right angle to the excitation pathway and directed to a Princeton Instruments Acton SP-2300i monochromator. The signal was detected with a XPI-Max 4 CCD camera (Princeton Instruments). The luminescence quantum yields were determined by comparison with the reference [Ru(2,2′-bipyridine)3]Cl2 in acetonitrile (Φem = 5.9%)[58] applying the following formula:2 Φem,sample=Φem,reference×Freference/Fsample×Isample/Ireference×nsample/nreference^2, 3 F=1−10^-A. Φem = luminescence quantum yield, F = fraction of light absorbed, I = integrated emission intensities, n = refractive index, A = absorbance of the sample at irradiation wavelength.

[11] = Singlet oxygen quantum yield, indirect evaluation (1O2 scavenger absorbance); assay type: physicochemical
Method: Indirect evaluation: measurement in acetonitrile: the sample was prepared in an air-saturated acetonitrile solution with an absorption of 0.2 at the irradiation wavelength, N,N-dimethyl-4-nitrosoaniline aniline (RNO, 24 µM) and imidazole (12 mM). Measurement in PBS buffer: the sample was prepared in an air-saturated PBS solution containing the complex with an absorption of 0.2 at the irradiation wavelength, N,N-dimethyl-4-nitrosoaniline aniline (RNO, 20 µM) and histidine (10 mM). The samples were irradiated for various time points with an Atlas Photonics LUMOS BIO irradiator. The absorption of the samples was constantly monitored with a SpectraMax M2 Microplate Reader (Molecular Devices). The difference in absorption (A0 − A) at 420 nm for the measurement in acetonitrile or at 440 nm for the measurement in PBS was determined. The difference in absorption was then plotted against the irradiation times and the slope of the linear regression calculated. The absorption of the sample was corrected with an absorption correction factor. The singlet oxygen quantum yields were calculated using the same formulas as used for the direct evaluation.

COc1ccc(/C=C/c2ccnc(-c3cc(/C=C/c4ccc(OC)cc4)ccn3)c2)cc1.F[P-](F)(F)(F)(F)F.F[P-](F)(F)(F)(F)F.[Ru+2].c1ccc(-c2ccccn2)nc1.c1ccc(-c2ccccn2)nc1 [compound 7, [Ru(2,2′-bipyridine)2((E,E′)-4,4′-Bis[p-methoxystyryl]-2,2′-bipyridine)][PF6]2]
photostability (change of absorption spectra upon irradiation) [1]: no significant differences in the absorption spectra | IC50 [2]: 3.1 µM | IC50 [3]: 700 ± 400 nM | IC50 [4]: 13.5 µM | logD (octanol/PBS) [5]: +0.5 ± 0.2 | PI (480 nm) ([6]; U373, dark vs 480 nm): > 9.5 | PI (540 nm) ([6]; U373, dark vs 540 nm): > 7.4 | IC50 ([6]; read-out: IC50 480 nm (10 min, 3.1 J cm-2), U373, 480 nm): 10.5 µM | IC50 ([6]; read-out: IC50 dark, U373, dark): > 100 µM | PI (480 nm) ([7]; RPE-1, dark vs 480 nm): > 32.3 | PI (540 nm) ([7]; RPE-1, dark vs 540 nm): > 11.9 | IC50 ([7]; read-out: IC50 540 nm (40 min, 9.5 J cm-2), RPE-1, 540 nm): 8.4 µM | IC50 ([7]; read-out: IC50 dark, RPE-1, dark): > 100 µM | Singlet oxygen quantum yield, Direct 450 nm CH3CN [8]: 75% | PI (480 nm) ([9]; CT-26, dark vs 480 nm): > 143 and > 142.9 | PI (540 nm) ([9]; CT-26, dark vs 540 nm): > 111.1 | IC50 ([9]; read-out: IC50 540 nm (40 min, 9.5 J cm-2), CT-26, 540 nm): 900 ± 300 nM | IC50 ([9]; read-out: IC50 dark, CT-26, dark): > 100000 nM | Φem, luminescence quantum yield [10]: 2.8% | λem, emission maximum [10]: 664 nm | Singlet oxygen quantum yield, Indirect 450 nm CH3CN ([11]; 450 nm, CH3CN): 77% | Singlet oxygen quantum yield, Indirect 450 nm PBS ([11]; 450 nm, PBS): 11% | Singlet oxygen quantum yield, Indirect 540 nm CH3CN ([11]; 540 nm, CH3CN): 68% | Singlet oxygen quantum yield, Indirect 540 nm PBS ([11]; 540 nm, PBS): 10% | Singlet oxygen quantum yield in acetonitrile (range over methods and wavelengths) ([11]; acetonitrile, 450 and 540 nm, direct and indirect): 68–77% | Singlet oxygen quantum yield in aqueous solution (range over wavelengths) ([11]; aqueous solution, 450 and 540 nm): 10–11%
